Results on 17 compounds are retold here after ChEMBL document CHEMBL1128320 (J Med Chem, 1995).

The target of series [1] is T1, Steroid 17-alpha-hydroxylase/17,20 lyase (Rattus norvegicus, UniProt P11715).
T1 sequence (P11715 whole entry): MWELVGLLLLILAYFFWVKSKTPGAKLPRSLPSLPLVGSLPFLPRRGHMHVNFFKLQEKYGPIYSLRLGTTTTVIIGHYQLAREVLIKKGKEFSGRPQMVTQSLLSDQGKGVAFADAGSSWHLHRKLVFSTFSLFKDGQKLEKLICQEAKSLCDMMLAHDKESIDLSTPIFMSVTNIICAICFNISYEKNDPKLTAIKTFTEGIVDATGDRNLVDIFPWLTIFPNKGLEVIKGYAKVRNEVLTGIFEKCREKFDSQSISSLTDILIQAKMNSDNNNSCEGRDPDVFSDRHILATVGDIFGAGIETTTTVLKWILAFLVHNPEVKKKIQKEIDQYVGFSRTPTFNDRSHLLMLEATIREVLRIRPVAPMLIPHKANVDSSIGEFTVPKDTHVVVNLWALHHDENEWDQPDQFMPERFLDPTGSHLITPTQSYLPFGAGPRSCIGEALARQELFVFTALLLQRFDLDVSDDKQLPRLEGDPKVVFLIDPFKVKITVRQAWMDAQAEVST

The target of series [2] is T2, Steroid 17-alpha-hydroxylase/17,20 lyase (Homo sapiens, UniProt P05093).
T2 sequence (P05093 whole entry): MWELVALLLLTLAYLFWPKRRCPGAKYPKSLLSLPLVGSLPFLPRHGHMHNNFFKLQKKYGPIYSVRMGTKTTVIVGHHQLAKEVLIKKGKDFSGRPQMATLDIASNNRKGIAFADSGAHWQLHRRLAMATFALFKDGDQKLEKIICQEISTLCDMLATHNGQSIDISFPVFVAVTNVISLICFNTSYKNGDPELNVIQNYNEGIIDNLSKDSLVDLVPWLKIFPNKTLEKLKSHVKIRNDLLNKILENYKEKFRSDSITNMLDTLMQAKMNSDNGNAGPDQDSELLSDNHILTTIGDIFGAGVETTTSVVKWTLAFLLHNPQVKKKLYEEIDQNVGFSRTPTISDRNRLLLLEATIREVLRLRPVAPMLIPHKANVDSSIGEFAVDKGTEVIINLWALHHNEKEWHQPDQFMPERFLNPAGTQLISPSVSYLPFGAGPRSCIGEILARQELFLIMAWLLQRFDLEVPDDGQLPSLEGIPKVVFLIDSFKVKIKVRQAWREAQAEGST

Series [3] addresses T2, Steroid 17-alpha-hydroxylase/17,20 lyase. This is another data set of the same source.
For series [4], the target named is T1, Steroid 17-alpha-hydroxylase/17,20 lyase. The source holds these as a separate data set.
Series [5] has as its system esterase. The series is described as follows: in vitro. As to conditions: rat, in vivo.
Description: Hydrolysis rate by rat liver microsomal esterase

Molecules are shown by their SMILES. Where only a bound is given, the exact number is not on record here.

Regarding `C[C@@H]1C(OC(=O)C(C)(C)c2cccnc2)CC2CC1C2(C)C` (stereo not given in full), the 50% inhibitory concentration (IC50) (as a rule, the midpoint of a concentration-inhibition curve) was 0.047 µM in series [1], 0.015 µM in series [2], 0.029 µM in series [3] and 0.052 µM in series [4].

In the case of `CCC(CC)(C(=O)OC1CC2CC([C@@H]1C)C2(C)C)c1ccncc1` (stereo not given in full), the half-maximal inhibitory concentration (IC50) in series [2] was 0.035 µM; in series [3], 0.14 µM.

On to `CCC(C(=O)OC1CC2CC([C@@H]1C)C2(C)C)c1ccncc1` (stereo not given in full), for which the results for the IC50 in series [2] and in series [3] were 0.009 µM and 0.034 µM, respectively. Besides, in series [5], the half-life (usually the time needed for the level to fall by half in the phase considered) came to 88 min.

Take `C[C@@H]1CCC2C(C)(C)C3CC21CC[C@@]3(C)OC(=O)Cc1ccncc1` (stereo not given in full): the values for the IC50 in series [2] and in series [3] were 0.052 µM and 0.27 µM, respectively.

For the compound `C[C@@H]1C(OC(=O)Cc2cccnc2)CC2CC1C2(C)C` (stereo not given in full), the IC50 stood at 0.46 µM in series [1], 0.088 µM in series [2], 0.26 µM in series [3] and 0.52 µM in series [4]. In series [5], this compound returned a half-life of 16 min.

Regarding `CC(C)(C(=O)OC12CC3CC(CC(C3)C1)C2)c1cccnc1`, the figures for the IC50 in series [2] and in series [3] were 0.013 µM and 0.09 µM, respectively.

For the compound `CC(C(=O)OC1CC2CC([C@@H]1C)C2(C)C)c1ccncc1` (stereo not given in full), the IC50 turned out to be 0.006 µM in series [2] and 0.019 µM in series [3]. In series [5], this compound had a half-life of 100 min.

On to `CC(C(=O)OC1CC2CC([C@@H]1C)C2(C)C)c1cccnc1` (stereo not given in full), for which the IC50 in series [2] was 0.014 µM; in series [3], 0.082 µM. The compound further yielded a half-life in series [5] of 50 min.

Regarding `CC(C(=O)OC12CC3CC(CC(C3)C1)C2)c1cccnc1` (stereo not given), the 50% inhibitory concentration (IC50) in series [2] turned out to be 0.035 µM; in series [3], 0.22 µM.

Turning to `CC(C)(C(=O)OC1(C)C2CC3CC(C2)CC1C3)c1cccnc1` (stereo not given), the figures for the IC50 in series [2] and in series [3] were 0.013 µM and 0.075 µM, respectively.

Consider `C[C@@H]1C(OC(=O)C(C)(C)c2ccncc2)CC2CC1C2(C)C` (stereo not given in full), for which the IC50 turned out to be 0.01 µM in series [2] and 0.026 µM in series [3].

As to `C[C@@H]1C(OC(=O)Cc2ccccn2)CC2CC1C2(C)C` (stereo not given in full), the IC50 in series [2] and in series [3] was above 1 µM throughout.

Take `C[C@@H]1CCC2C(C)(C)C3CC21CC[C@@]3(C)OC(=O)Cc1cccnc1` (stereo not given in full): the figures for the IC50 in series [2] and in series [3] were 0.038 µM and 0.23 µM, respectively.

Turning to `CC1(OC(=O)Cc2cccnc2)C2CC3CC(C2)CC1C3` (stereo not given), the results for the concentration for half-maximal inhibition (IC50) in series [2] and in series [3] were 0.32 µM and 1.9 µM, respectively.

Consider `C[C@@H]1C(OC(=O)Cc2ccncc2)CC2CC1C2(C)C` (stereo not given in full), for which the IC50 in series [1] worked out at 0.26 µM; in series [2] it was 0.005 µM; in series [3], 0.014 µM; in series [4], 0.28 µM. Moreover, the half-life in series [5] came to 17.5 min.

Take `O=C(Cc1cccnc1)OC12CC3CC(CC(C3)C1)C2`: the half-maximal inhibitory concentration (IC50) came to 0.13 µM in series [2] and 0.93 µM in series [3].

On to `C[C@@H]1CCC2C(C)(C)C3CC21CC[C@@]3(C)OC(=O)C(C)(C)c1cccnc1` (stereo not given in full), for which the half-inhibitory concentration (IC50) in series [2] was 0.67 µM; in series [3], 4 µM.
